Consider 33 molecules from US11802111B2, “Cyclobutyl amide monoacylglycerol lipase modulators” (Janssen Pharmaceutica NV, priority 2020, dated 2023).

In general, IC50 refers to the concentration at which inhibition is half-maximal. The low end stands for greater potency in that assay, the high end for weaker potency in that assay.

Each structure is given as a SMILES string.

Chain of human MGL from HeLa cells (Q99685 whole entry): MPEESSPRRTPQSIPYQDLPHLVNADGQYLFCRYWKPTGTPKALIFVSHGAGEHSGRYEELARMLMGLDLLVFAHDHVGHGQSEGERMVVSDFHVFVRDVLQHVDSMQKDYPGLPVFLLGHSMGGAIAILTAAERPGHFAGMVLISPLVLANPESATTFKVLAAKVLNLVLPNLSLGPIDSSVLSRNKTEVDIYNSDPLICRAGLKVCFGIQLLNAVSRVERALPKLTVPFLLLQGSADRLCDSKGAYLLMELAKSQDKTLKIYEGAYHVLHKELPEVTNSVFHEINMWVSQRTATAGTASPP

For the test, the target named is human MGL from HeLa cells (Homo sapiens (Human), UniProt Q99685). Briefly: MGL in vitro activity assay ([glycerol-1,3-3H]-oleoyl glycerol hydrolysis, activated carbon filtration). It is filed as biochemical. The conditions noted are these: 300 nM [Glycerol-1,3-3H]-oleoyl glycerol, one hour. In a few lines:
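Activity measured as tritium in the flow-through after activated carbon filtration of a 1 h reaction containing 300 nM 3H-oleoyl glycerol, compound and HeLa-derived human MGL. Compounds screened at 10 μM; IC50 series start at an empirically chosen highest concentration.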
For `Cc1c(C2CCC3(CC2)CN(C(=O)[C@H]2C[C@@](C)(O)C2)C3)ccnc1OC(C)C` [Example 376, ((1s,3s)-3-Hydroxy-3-methylcyclobutyl)(7-(2-isopropoxy-3-methylpyridin-4-yl)-2-azaspiro[3.5]nonan-2-yl)methanone], the IC50 worked out at 17 nM. This lies in the double-digit nanomolar range. In the case of `CC(C)(C)c1cncc(C2CCC3(CC2)CN(C(=O)[C@H]2C[C@@](C)(O)C2)C3)n1` [Example 377, (7-(6-(tert-Butyl)pyrazin-2-yl)-2-azaspiro[3.5]nonan-2-yl)((1s,3s)-3-hydroxy-3-methylcyclobutyl)methanone] it was 82 nM. The value for `CC(C)(C)c1ccnc(C2CCC3(CC2)CN(C(=O)[C@H]2C[C@@](C)(O)C2)C3)n1` [Example 378, (7-(4-(tert-Butyl)pyrimidin-2-yl)-2-azaspiro[3.5]nonan-2-yl)((1s,3s)-3-hydroxy-3-methylcyclobutyl)methanone] was 37 nM; that for `CC(C)(C)n1ccc(C2CCC3(CC2)CN(C(=O)[C@H]2C[C@@](C)(O)C2)C3)n1` [Example 379, (7-(1-(tert-Butyl)-1H-pyrazol-3-yl)-2-azaspiro[3.5]nonan-2-yl)((1s,3s)-3-hydroxy-3-methylcyclobutyl)methanone] was 56 nM; that for `C[C@]1(O)C[C@@H](C(=O)N2CC3(CCC(c4ccn(-c5ccccc5)n4)CC3)C2)C1` [Example 380, ((1s,3s)-3-Hydroxy-3-methylcyclobutyl)(7-(1-phenyl-1H-pyrazol-3-yl)-2-azaspiro[3.5]nonan-2-yl)methanone] was 23 nM. In the case of `CC(C)(C)n1cnc(C2CCC3(CC2)CN(C(=O)[C@H]2C[C@@](C)(O)C2)C3)c1` [Example 381, (7-(1-(tert-Butyl)-1H-imidazol-4-yl)-2-azaspiro[3.5]nonan-2-yl)((1s,3s)-3-hydroxy-3-methylcyclobutyl)methanone], half-maximal inhibition (IC50) required 1390 nM. With `CC(C)(C)c1cc(C2CCC3(CC2)CN(C(=O)[C@H]2C[C@@](C)(O)C2)C3)on1` [Example 382, (7-(3-(tert-Butyl)isoxazol-5-yl)-2-azaspiro[3.5]nonan-2-yl)((1s,3s)-3-hydroxy-3-methylcyclobutyl)methanone], 178 nM corresponded to half-maximal inhibition (IC50). The value for `Cn1cc(C2CCC3(CC2)CN(C(=O)[C@H]2C[C@@](C)(O)C2)C3)c2cccnc21` [Example 383, ((1s,3s)-3-Hydroxy-3-methylcyclobutyl)(7-(1-methyl-1H-pyrrolo[2,3-b]pyridin-3-yl)-2-azaspiro[3.5]nonan-2-yl)methanone] was 180 nM; that for `Cn1ccc2ccc(C3CCC4(CC3)CN(C(=O)[C@H]3C[C@@](C)(O)C3)C4)nc21` [Example 384, ((1s,3s)-3-Hydroxy-3-methylcyclobutyl)(7-(1-methyl-1H-pyrrolo[2,3-b]pyridin-6-yl)-2-azaspiro[3.5]nonan-2-yl)methanone] was 97 nM. In the case of `CC(C)n1ccc2ccc(C3CCC4(CC3)CN(C(=O)[C@H]3C[C@@](C)(O)C3)C4)nc21` [Example 385, ((1s,3s)-3-Hydroxy-3-methylcyclobutyl)(7-(1-isopropyl-1H-pyrrolo[2,3-b]pyridin-6-yl)-2-azaspiro[3.5]nonan-2-yl)methanone], inhibition was half-maximal at 30 nM (IC50). The value for `Cn1cc(C(F)(F)F)c2ccc(C3CCC4(CC3)CN(C(=O)[C@H]3C[C@@](C)(O)C3)C4)nc21` [Example 386, ((1s,3s)-3-Hydroxy-3-methylcyclobutyl)(7-(1-methyl-3-(trifluoromethyl)-1H-pyrrolo[2,3-b]pyridin-6-yl)-2-azaspiro[3.5]nonan-2-yl)methanone] was 19 nM. In the case of `C[C@]1(O)C[C@@H](C(=O)N2CC3(CCC(c4ccc5ccn(CC(F)(F)F)c5n4)CC3)C2)C1` [Example 387, ((1s,3s)-3-Hydroxy-3-methylcyclobutyl)(7-(1-(2,2,2-trifluoroethyl)-1H-pyrrolo[2,3-b]pyridin-6-yl)-2-azaspiro[3.5]nonan-2-yl)methanone], the 50% inhibitory concentration (IC50) is 68 nM. In the case of `C[C@]1(O)C[C@@H](C(=O)N2CC3(CCC(c4cc5ccccn5n4)CC3)C2)C1` [Example 388, ((1s,3s)-3-Hydroxy-3-methylcyclobutyl)(7-(pyrazolo[1,5-c]pyridin-2-yl)-2-azaspiro[3.5]nonan-2-yl)methanone] it was 198 nM; in that of `C[C@]1(O)C[C@@H](C(=O)N2CC3(CCC(c4cccc5ccnn45)CC3)C2)C1` [Example 389, ((1s,3s)-3-Hydroxy-3-methylcyclobutyl)(7-(pyrazolo[1,5-a]pyridin-7-yl)-2-azaspiro[3.5]nonan-2-yl)methanone], 101 nM. The value for `C[C@]1(O)C[C@@H](C(=O)N2CC3(CCC(c4cccc5nccn45)CC3)C2)C1` [Example 390] was 722 nM; that for `C[C@]1(O)C[C@@H](C(=O)N2CC3(CCC(c4cn5ccccc5n4)CC3)C2)C1` [Example 391] was 1270 nM.

`C[C@]1(O)C[C@@H](C(=O)N2CC3(CCC(c4cnc5ccccn45)CC3)C2)C1` [Example 392, ((1s,3s)-3-Hydroxy-3-methylcyclobutyl)(7-(imidazo[1,2-c]pyridin-3-yl)-2-azaspiro[3.5]nonan-2-yl)methanone] registered an IC50 of 790 nM.

In turn, `C[C@]1(O)C[C@@H](C(=O)N2CC3(CCC(c4cnn5cccc5c4)CC3)C2)C1` [Example 393, ((1s,3s)-3-Hydroxy-3-methylcyclobutyl)(7-(pyrrolo[1,2-b]pyridazin-3-yl)-2-azaspiro[3.5]nonan-2-yl)methanone] came in with an IC50 of 27 nM.

In turn, `C[C@]1(O)C[C@@H](C(=O)N2CC3(CCC(c4cnn5ccccc45)CC3)C2)C1` [Example 394, ((1s,3s)-3-Hydroxy-3-methylcyclobutyl)(7-(pyrazolo[1,5-c]pyridin-3-yl)-2-azaspiro[3.5]nonan-2-yl)methanone] showed an IC50 of 226 nM. In the case of `C[C@]1(O)C[C@@H](C(=O)N2CC3(CCC(c4cc5n(n4)CCCC5)CC3)C2)C1` [Example 395, ((1s,3s)-3-Hydroxy-3-methylcyclobutyl)(7-(4,5,6,7-tetrahydropyrazolo[1,5-a]pyridin-2-yl)-2-azaspiro[3.5]nonan-2-yl)methanone] it was 354 nM. For `C[C@]1(O)C[C@@H](C(=O)N2CC3(CCC(c4cn5c(n4)CCCC5)CC3)C2)C1` [Example 396, ((1s,3s)-3-Hydroxy-3-methylcyclobutyl)(7-(5,6,7,8-tetrahydroimidazo[1,2-a]pyridin-2-yl)-2-azaspiro[3.5]nonan-2-yl)methanone], the IC50 turned out to be 7240 nM. Against the preceding molecule, the IC50 is about 20-fold higher. With `Cc1ccc(CC2CCC3(CC2)CN(C(=O)[C@H]2C[C@@](C)(O)C2)C3)cc1` [Example 397, ((1s,3s)-3-Hydroxy-3-methylcyclobutyl)(7-(4-methylbenzyl)-2-azaspiro[3.5]nonan-2-yl)methanone], 16 nM corresponded to half-maximal inhibition (IC50). Turning to `Cc1cccc(CC2CCC3(CC2)CN(C(=O)[C@H]2C[C@@](C)(O)C2)C3)c1F` [Example 398, (7-(2-Fluoro-3-methylbenzyl)-2-azaspiro[3.5]nonan-2-yl)((1s,3s)-3-hydroxy-3-methylcyclobutyl)methanone], inhibition was half-maximal at 18 nM (IC50). With `Cc1cc(CC2CCC3(CC2)CN(C(=O)[C@H]2C[C@@](C)(O)C2)C3)ccc1F` [Example 399, (7-(4-Fluoro-3-methylbenzyl)-2-azaspiro[3.5]nonan-2-yl)((1s,3s)-3-hydroxy-3-methylcyclobutyl)methanone], the IC50 is 19 nM. In the case of `C[C@]1(O)C[C@@H](C(=O)N2CC3(CCC(Cn4ccc5cccnc54)CC3)C2)C1` [Example 400, (7-((1H-Pyrrolo[2,3-b]pyridin-1-yl)methyl)-2-azaspiro[3.5]nonan-2-yl)((1s,3s)-3-hydroxy-3-methylcyclobutyl)methanone] it was 311 nM; in that of `Cn1ccc2ccc(CC3CCC4(CC3)CN(C(=O)[C@H]3C[C@@](C)(O)C3)C4)nc21` [Example 401, ((1s,3s)-3-Hydroxy-3-methylcyclobutyl)(7-((1-methyl-1H-pyrrolo[2,3-b]pyridin-6-yl)methyl)-2-azaspiro[3.5]nonan-2-yl)methanone], 66 nM; in that of `Cn1ncc2ccc(CC3CCC4(CC3)CN(C(=O)[C@H]3C[C@@](C)(O)C3)C4)cc21` [Example 402, ((1s,3s)-3-Hydroxy-3-methylcyclobutyl)(7-((1-methyl-1H-indazol-6-yl)methyl)-2-azaspiro[3.5]nonan-2-yl)methanone], 185 nM. For `Cn1ncc2ccc(CC3CCC4(CC3)CN(C(=O)[C@H]3C[C@@](C)(O)C3)C4)nc21` [Example 403, ((1s,3s)-3-Hydroxy-3-methylcyclobutyl)(7-((1-methyl-1H-pyrazolo[3,4-b]pyridin-6-yl)methyl)-2-azaspiro[3.5]nonan-2-yl)methanone], inhibition was half-maximal at 449 nM (IC50).

`Cc1ccc(OC2CCC3(CC2)CN(C(=O)[C@H]2C[C@@](C)(O)C2)C3)cc1` [Example 404, ((1s,3s)-3-Hydroxy-3-methylcyclobutyl)(7-(p-tolyloxy)-2-azaspiro[3.5]nonan-2-yl)methanone] displayed an IC50 of 53 nM. Compared with the last molecule, the IC50 is about 8.5-fold lower. In the case of `Cc1ccc(OC2CCC3(CC2)CN(C(=O)[C@H]2C[C@@](C)(O)C2)C3)cc1C` [Example 405, (7-(3,4-Dimethylphenoxy)-2-azaspiro[3.5]nonan-2-yl)((1s,3s)-3-hydroxy-3-methylcyclobutyl)methanone] it was 32 nM; in that of `Cc1cccc(OC2CCC3(CC2)CN(C(=O)[C@H]2C[C@@](C)(O)C2)C3)c1C` [Example 406, (7-(2,3-Dimethylphenoxy)-2-azaspiro[3.5]nonan-2-yl)((1s,3s)-3-hydroxy-3-methylcyclobutyl)methanone], 20 nM; in that of `COc1cc(C)cc(OC2CCC3(CC2)CN(C(=O)[C@H]2C[C@@](C)(O)C2)C3)c1` [Example 407, ((1s,3s)-3-Hydroxy-3-methylcyclobutyl)(7-(3-methoxy-5-methylphenoxy)-2-azaspiro[3.5]nonan-2-yl)methanone], 143 nM. The value for `COc1cc(OC2CCC3(CC2)CN(C(=O)[C@H]2C[C@@](C)(O)C2)C3)ccc1C` [Example 408, ((1s,3s)-3-Hydroxy-3-methylcyclobutyl)(7-(3-methoxy-4-methylphenoxy)-2-azaspiro[3.5]nonan-2-yl)methanone] was 33 nM.
